Measurements as given in US20070128217A1 (priority 2003, published 2007).

Experiments:
[1] = test system: control sera (pooled serum of ten healthy LUMC hospital workers; commercial negative donor pooled serum from the Dutch bloodbank); format: binding, human; parameters: Binding of Control serum LUMC to linear peptides / Binding of Control serum Blood-bank to linear peptides / Binding of Control serum LUMC to looped peptides / Binding of Control Serum Blood-Bank to Looped peptides / Binding of Control serum LUMC to linear peptides of the protein M of SARS-CoV Urbani / Binding of Control serum Blood-bank to linear peptides of the protein M of SARS-CoV Urbani / Binding of Control serum LUMC to looped peptides of the protein M of SARS-CoV Urbani / Binding of Control Serum Blood-Bank to Looped peptides of the protein M of SARS-CoV Urbani: unit not given here
[2] = test system: rabbit serum obtained by immunizing a rabbit with the SARS-CoV strain Frankfurt 1; format: binding; parameters: Binding of a rabbit serum to linear peptides / Binding of a rabbit serum to looped peptides / Rabbit serum linear peptides / Rabbit serum looped peptides / Binding of a rabbit serum to linear peptides of protein N of SARS-CoV Urbani (Rabbit serum linear peptides) / Binding of a rabbit serum to looped/cyclic peptides of protein N of SARS-CoV Urbani (Rabbit serum looped peptides): unit not given here
[3] = test system: antibodies in sera from SARS patients (sera 1a, 1b, 2, 6, 37, 62, London, SARS-yellow, SARS-green); format: binding, human; parameters: Binding of serum 6 to linear peptides of protein X1 of SARS-CoV Urbani / Binding of serum 37 to linear peptides of protein X1 of SARS-CoV Urbani / Binding of serum 6 to looped/cyclic peptide (PEPSCAN-ELISA) / Binding of serum 37 to looped/cyclic peptide (PEPSCAN-ELISA) / Binding of serum 37 to looped/cyclic peptides of protein X1 of SARS-CoV Urbani / Binding of serum 6 to linear peptides of protein X2 / Binding of serum 37 to linear peptides of protein X2 / Binding of serum 37 to looped/cyclic peptides of protein X2 of SARS-CoV Urbani / Binding of serum 6 to linear peptides of protein M of SARS-CoV Urbani / Binding of serum 37 to linear peptides of protein M of SARS-CoV Urbani / Binding of serum 6 to looped/cyclic peptides of protein M of SARS-CoV Urbani / Binding of serum 37 to looped/cyclic peptides of protein M of SARS-CoV Urbani / Binding of serum 6 to linear peptides of protein X3 of SARS-CoV Urbani / Binding of serum 37 to linear peptides of protein X3 of SARS-CoV Urbani / Binding of serum 37 to looped/cyclic peptides of protein X3 of SARS-CoV Urbani / Binding of serum 6 to linear peptides of protein X4 of SARS-CoV Urbani / Binding of serum 37 to linear peptides of protein X4 of SARS-CoV Urbani / Binding of serum 37 to looped/cyclic peptides of protein X4 of SARS-CoV Urbani / Binding of serum 6 to linear peptides of protein X5 of SARS-CoV Urbani / Binding of serum 37 to linear peptides of protein X5 of SARS-CoV Urbani / Binding of serum 37 to looped/cyclic peptides of protein X5 of SARS-CoV Urbani / Binding of serum 6 to linear peptides of protein N of SARS-CoV Urbani / Binding of serum 37 to linear peptides of protein N of SARS-CoV Urbani / Binding of serum 6 to linear peptide (PEPSCAN-ELISA) / Binding of serum 1a to looped/cyclic peptides of protein N of SARS-CoV Urbani / Binding of serum 1b to looped/cyclic peptides of protein N of SARS-CoV Urbani / Binding of serum 2 to looped/cyclic peptides of protein N of SARS-CoV Urbani / Binding of serum 6 to looped/cyclic peptides of protein N of SARS-CoV Urbani / Binding of serum 37 to looped/cyclic peptides of protein N of SARS-CoV Urbani / Binding of serum 62 to looped/cyclic peptides of protein N of SARS-CoV Urbani / Binding of serum London to looped/cyclic peptides of protein N of SARS-CoV Urbani / Binding of serum SARS-green to looped/cyclic peptides of protein N of SARS-CoV Urbani: unit not given here

DLFMRFFTLGSITAQ
Binding of Control Serum Blood-Bank to Looped peptides [1]: 0.5
Binding of Control serum Blood-bank to linear peptides [1]: 0.6
Binding of Control serum LUMC to linear peptides [1]: 0.6
Binding of Control serum LUMC to looped peptides [1]: 0.5
Binding of a rabbit serum to linear peptides [2]: 0.1
Binding of a rabbit serum to looped peptides [2]: 0.3
Binding of serum 1a to linear peptides of protein X1 of SARS-CoV Urbani [3]: 0.7
Binding of serum 1a to looped/cyclic peptide (PEPSCAN-ELISA) [3]: 0.5
Binding of serum 1b to linear peptides of protein X1 of SARS-CoV Urbani [3]: 0.5
Binding of serum 1b to looped/cyclic peptide (PEPSCAN-ELISA) [3]: 0.3
Binding of serum 2 to linear peptides of protein X1 of SARS-CoV Urbani [3]: 0.4
Binding of serum 2 to looped/cyclic peptide (PEPSCAN-ELISA) [3]: 0.3
Binding of serum 6 to linear peptides of protein X1 of SARS-CoV Urbani [3]: 0.1
Binding of serum 6 to looped/cyclic peptide (PEPSCAN-ELISA) [3]: 0.3
Binding of serum 37 to linear peptides of protein X1 of SARS-CoV Urbani [3]: 0.6
Binding of serum 37 to looped/cyclic peptide (PEPSCAN-ELISA) [3]: 0.5
Binding of serum 62 to linear peptides of protein X1 of SARS-CoV Urbani [3]: 0.5
Binding of serum 62 to looped/cyclic peptide (PEPSCAN-ELISA) [3]: 0.5
Binding of serum London to linear peptides of protein X1 of SARS-CoV Urbani [3]: 0.2
Binding of serum London to looped/cyclic peptide (PEPSCAN-ELISA) [3]: 0.2
Binding of serum SARS-green to linear peptides of protein X1 of SARS-CoV Urbani [3]: 0.2
Binding of serum SARS-green to looped/cyclic peptide (PEPSCAN-ELISA) [3]: 0.2
Binding of serum SARS-yellow to linear peptides of protein X1 of SARS-CoV Urbani [3]: 0.4
Binding of serum SARS-yellow to looped/cyclic peptide (PEPSCAN-ELISA) [3]: 0.2

QTCTPNVTINCQDPA
Binding of Control Serum Blood-Bank to Looped peptides [1]: 0.4
Binding of Control serum Blood-bank to linear peptides [1]: 0.6
Binding of Control serum LUMC to linear peptides [1]: 0.4
Binding of Control serum LUMC to looped peptides [1]: 0.3
Rabbit serum linear peptides [2]: 0.3
Rabbit serum looped peptides [2]: 0.0
Binding of serum 1a to linear peptides of protein X5 of SARS-CoV Urbani [3]: 0.8
Binding of serum 1a to looped/cyclic peptides of protein X5 of SARS-CoV Urbani [3]: 0.4
Binding of serum 1b to linear peptides of protein X5 of SARS-CoV Urbani [3]: 0.7
Binding of serum 1b to looped/cyclic peptides of protein X5 of SARS-CoV Urbani [3]: 0.1
Binding of serum 2 to linear peptides of protein X5 of SARS-CoV Urbani [3]: 0.6
Binding of serum 2 to looped/cyclic peptides of protein X5 of SARS-CoV Urbani [3]: 0.3
Binding of serum 6 to linear peptides of protein X5 of SARS-CoV Urbani [3]: 0.8
Binding of serum 6 to looped/cyclic peptides of protein X5 of SARS-CoV Urbani [3]: 0.2
Binding of serum 37 to linear peptides of protein X5 of SARS-CoV Urbani [3]: 0.8
Binding of serum 37 to looped/cyclic peptides of protein X5 of SARS-CoV Urbani [3]: 0.3
Binding of serum 62 to linear peptides of protein X5 of SARS-CoV Urbani [3]: 0.8
Binding of serum 62 to looped/cyclic peptides of protein X5 of SARS-CoV Urbani [3]: 0.2
Binding of serum London to linear peptides of protein X5 of SARS-CoV Urbani [3]: 0.9
Binding of serum London to looped/cyclic peptides of protein X5 of SARS-CoV Urbani [3]: 0.1
Binding of serum SARS-green to linear peptides of protein X5 of SARS-CoV Urbani [3]: 0.8
Binding of serum SARS-green to looped/cyclic peptides of protein X5 of SARS-CoV Urbani [3]: 0.0
Binding of serum SARS-yellow to linear peptides of protein X5 of SARS-CoV Urbani [3]: 0.1
Binding of serum SARS-yellow to looped/cyclic peptides of protein X5 of SARS-CoV Urbani [3]: 0.1

ILFLTLIVFTSCELY
Binding of Control Serum Blood-Bank to Looped peptides [1]: 0.7
Binding of Control serum Blood-bank to linear peptides [1]: 0.6
Binding of Control serum LUMC to linear peptides [1]: 0.7
Binding of Control serum LUMC to looped peptides [1]: 0.8
Rabbit serum linear peptides [2]: 0.7
Rabbit serum looped peptides [2]: 0.2
Binding of serum 1a to linear peptides of protein X4 of SARS-CoV Urbani [3]: 0.7
Binding of serum 1a to looped/cyclic peptides of protein X4 of SARS-CoV Urbani [3]: 0.7
Binding of serum 1b to linear peptides of protein X4 of SARS-CoV Urbani [3]: 0.6
Binding of serum 1b to looped/cyclic peptides of protein X4 of SARS-CoV Urbani [3]: 0.4
Binding of serum 2 to linear peptides of protein X4 of SARS-CoV Urbani [3]: 0.5
Binding of serum 2 to looped/cyclic peptides of protein X4 of SARS-CoV Urbani [3]: 0.7
Binding of serum 6 to linear peptides of protein X4 of SARS-CoV Urbani [3]: 0.5
Binding of serum 6 to looped/cyclic peptides of protein X4 of SARS-CoV Urbani [3]: 0.6
Binding of serum 37 to linear peptides of protein X4 of SARS-CoV Urbani [3]: 0.7
Binding of serum 37 to looped/cyclic peptides of protein X4 of SARS-CoV Urbani [3]: 0.7
Binding of serum 62 to linear peptides of protein X4 of SARS-CoV Urbani [3]: 0.7
Binding of serum 62 to looped/cyclic peptides of protein X4 of SARS-CoV Urbani [3]: 0.7
Binding of serum London to linear peptides of protein X4 of SARS-CoV Urbani [3]: 0.6
Binding of serum London to looped/cyclic peptides of protein X4 of SARS-CoV Urbani [3]: 0.3
Binding of serum SARS-green to linear peptides of protein X4 of SARS-CoV Urbani [3]: 0.6
Binding of serum SARS-green to looped/cyclic peptides of protein X4 of SARS-CoV Urbani [3]: 0.4
Binding of serum SARS-yellow to linear peptides of protein X4 of SARS-CoV Urbani [3]: 0.4
Binding of serum SARS-yellow to looped/cyclic peptides of protein X4 of SARS-CoV Urbani [3]: 0.6

DGTRHTYQLRARSVS
Binding of Control Serum Blood-Bank to Looped peptides [1]: 0.8
Binding of Control serum Blood-bank to linear peptides [1]: 0.6
Binding of Control serum LUMC to linear peptides [1]: 0.5
Binding of Control serum LUMC to looped peptides [1]: 0.7
Recognition of the peptide by the rabbit serum [2]: recognized
Binding of serum 1a to linear peptides of protein X4 of SARS-CoV Urbani [3]: 0.6
Binding of serum 1a to looped/cyclic peptides of protein X4 of SARS-CoV Urbani [3]: 0.8
Binding of serum 1b to linear peptides of protein X4 of SARS-CoV Urbani [3]: 0.5
Binding of serum 1b to looped/cyclic peptides of protein X4 of SARS-CoV Urbani [3]: 0.5
Binding of serum 2 to linear peptides of protein X4 of SARS-CoV Urbani [3]: 0.8
Binding of serum 2 to looped/cyclic peptides of protein X4 of SARS-CoV Urbani [3]: 0.8
Binding of serum 6 to linear peptides of protein X4 of SARS-CoV Urbani [3]: 0.8
Binding of serum 6 to looped/cyclic peptides of protein X4 of SARS-CoV Urbani [3]: 0.8
Binding of serum 37 to linear peptides of protein X4 of SARS-CoV Urbani [3]: 0.8
Binding of serum 37 to looped/cyclic peptides of protein X4 of SARS-CoV Urbani [3]: 0.7
Binding of serum 62 to linear peptides of protein X4 of SARS-CoV Urbani [3]: 0.7
Binding of serum 62 to looped/cyclic peptides of protein X4 of SARS-CoV Urbani [3]: 0.7
Binding of serum London to linear peptides of protein X4 of SARS-CoV Urbani [3]: 0.7
Binding of serum London to looped/cyclic peptides of protein X4 of SARS-CoV Urbani [3]: 0.4
Binding of serum SARS-green to linear peptides of protein X4 of SARS-CoV Urbani [3]: 0.4
Binding of serum SARS-green to looped/cyclic peptides of protein X4 of SARS-CoV Urbani [3]: 0.6
Binding of serum SARS-yellow to linear peptides of protein X4 of SARS-CoV Urbani [3]: 0.5
Binding of serum SARS-yellow to looped/cyclic peptides of protein X4 of SARS-CoV Urbani [3]: 0.7

SELVIGAVIIRGHLR
Binding of Control Serum Blood-Bank to Looped peptides of the protein M of SARS-CoV Urbani [1]: 0.6
Binding of Control serum Blood-bank to linear peptides of the protein M of SARS-CoV Urbani [1]: 0.8
Binding of Control serum LUMC to linear peptides of the protein M of SARS-CoV Urbani [1]: 0.9
Binding of Control serum LUMC to looped peptides of the protein M of SARS-CoV Urbani [1]: 0.6
Rabbit serum linear peptides [2]: 0.2
Rabbit serum looped peptides [2]: 0.2
Binding of serum 1a to linear peptides of protein M of SARS-CoV Urbani [3]: 0.7
Binding of serum 1a to looped/cyclic peptides of protein M of SARS-CoV Urbani [3]: 0.8
Binding of serum 1b to linear peptides of protein M of SARS-CoV Urbani [3]: 0.6
Binding of serum 1b to looped/cyclic peptides of protein M of SARS-CoV Urbani [3]: 0.7
Binding of serum 2 to linear peptides of protein M of SARS-CoV Urbani [3]: 0.6
Binding of serum 2 to looped/cyclic peptides of protein M of SARS-CoV Urbani [3]: 0.8
Binding of serum 6 to linear peptides of protein M of SARS-CoV Urbani [3]: 0.7
Binding of serum 6 to looped/cyclic peptides of protein M of SARS-CoV Urbani [3]: 0.6
Binding of serum 37 to linear peptides of protein M of SARS-CoV Urbani [3]: 0.5
Binding of serum 37 to looped/cyclic peptides of protein M of SARS-CoV Urbani [3]: 0.8
Binding of serum 62 to linear peptides of protein M of SARS-CoV Urbani [3]: 0.4
Binding of serum 62 to looped/cyclic peptides of protein M of SARS-CoV Urbani [3]: 0.8
Binding of serum London to linear peptides of protein M of SARS-CoV Urbani [3]: 0.4
Binding of serum London to looped/cyclic peptides of protein M of SARS-CoV Urbani [3]: 0.2
Binding of serum SARS-green to linear peptides of protein M of SARS-CoV Urbani [3]: 0.5
Binding of serum SARS-green to looped/cyclic peptides of protein M of SARS-CoV Urbani [3]: 0.3
Binding of serum SARS-yellow to linear peptides of protein M of SARS-CoV Urbani [3]: 0.3
Binding of serum SARS-yellow to looped/cyclic peptides of protein M of SARS-CoV Urbani [3]: 0.9
